From patent publication US20120115845A1, “THERAPEUTIC AGENTS” (priority 2007, published 2012)

What was measured:
human GHS receptor [1] = biological target: T1, human GHS receptor (Homo sapiens, UniProt Q92847); assay: h bind IC50 (binding assay, Table 1); conditions: human receptor; Table 1
human GHS receptor [2] = biological target: T1, human GHS receptor; assay: Ghrelin IP1 agonist assay (IP1 HTRF); format: cell-based; design: expressed in transfected cells; host or cells: HEK293s; conditions: for Emax: 2 h, agonist effect as % maximal effect of GHRP-6 (5 μM), read-out: h IP1 ag %; for EC50: HEK293s cells stably expressing human GHS receptor, 2 hours at 37° C., read-out: h IP1 ag EC50
Description: In HEK293s cells stably expressing human GHS receptor (In-house), agonist activity was assessed by measuring intracellular myo-Inositol 1 phosphate (IP1) using the IP1 HTRF assay kit (Cisbio International).
Cells were harvested using accutase (Sigma), spun down at 1000 rpm for 5 minutes and resuspended in stimulation buffer (as above) containing 0.02% fatty acid free BSA at a density of 1.43E6cells/ml.
Agonist effect of the compound was expressed as % maximal effect of GHRP-6 (5 μM: Bachem). Sigmoidal curves were fitted by Origin 7.5 Client and EC50 values determined.

T1 sequence (Q92847 whole entry): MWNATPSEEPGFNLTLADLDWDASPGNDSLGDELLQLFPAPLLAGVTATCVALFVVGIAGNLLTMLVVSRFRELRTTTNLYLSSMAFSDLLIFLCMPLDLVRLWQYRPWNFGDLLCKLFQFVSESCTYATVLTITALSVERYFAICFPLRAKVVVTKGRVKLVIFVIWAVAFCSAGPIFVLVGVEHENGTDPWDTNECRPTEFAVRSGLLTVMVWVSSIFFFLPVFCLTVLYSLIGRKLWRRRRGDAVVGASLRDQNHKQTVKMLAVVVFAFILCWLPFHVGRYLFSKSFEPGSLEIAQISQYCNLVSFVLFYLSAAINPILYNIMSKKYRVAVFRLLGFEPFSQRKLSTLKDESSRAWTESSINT

| SMILES | IC50 (human GHS receptor [1]) | Emax (human GHS receptor [2]) | EC50 (human GHS receptor [2]) |
| --- | --- | --- | --- |
| O=C(NC(=O)c1ccccc1Cl)Nc1nc2ccc(S(=O)(=O)CCN3CCOCC3)cc2s1 [Example 1, 2-Chloro-N-[[6-(2-morpholin-4-ylethylsulfonyl)benzothiazol-2-yl]carbamoyl]benzamide] | 64.4 nM | 24% | 29.2 nM |
| CNCCS(=O)(=O)c1ccc2nc(NC(=O)NC(=O)c3ccccc3Cl)sc2c1 [Example 4, 2-Chloro-N-[[6-(2-methylaminoethylsulfonyl)benzothiazol-2-yl]carbamoyl]benzamide] | 77.3 nM | 58.5% | 9.46 nM |
| CC(C)NCCS(=O)(=O)c1ccc2nc(NC(=O)NC(=O)c3ccccc3Cl)sc2c1 [Example 10, 2-Chloro-N-[[6-[2-(propan-2-ylamino)ethylsulfonyl]benzothiazol-2-yl]carbamoyl]benzamide] | 27.3 nM | 44.1% | 18.9 nM |
| O=C(NC(=O)c1ccccc1Cl)Nc1nc2ccc(S(=O)(=O)CCN3CCC3)cc2s1 [Example 13, N-[[6-[2-(Azetidin-1-yl)ethylsulfonyl]benzothiazol-2-yl]carbamoyl]-2-chloro-benzamide] | 162 nM | 52.5% | 55.5 nM |
| O=C(NC(=O)c1ccccc1Cl)Nc1nc2ccc(S(=O)(=O)CCCN3CCCC3)cc2s1 [Example 149, 2-Chloro-N-[[6-(3-pyrrolidin-1-ylpropylsulfonyl)benzothiazol-2-yl]carbamoyl]benzamide] | 52.2 nM |  |  |
| O=C(NC(=O)c1ccccc1Cl)Nc1nc2ccc(S(=O)(=O)CCCN3CCC(F)(F)C3)cc2s1 [Example 154, 2-Chloro-N-[[6-[3-(3,3-difluoropyrrolidin-1-yl)propylsulfonyl]benzothiazol-2-yl]carbamoyl]benzamide] | 117 nM |  |  |
| O=C(NC(=O)c1ccccc1Cl)Nc1nc2ccc(S(=O)(=O)CCCN3CCC(O)C3)cc2s1 (stereo not drawn) [Example 160, 2-Chloro-N-[[6-[3-(3-hydroxypyrrolidin-1-yl)propylsulfonyl]benzothiazol-2-yl]carbamoyl]benzamide] | 29.6 nM |  |  |
| CCN1CCC(S(=O)(=O)c2ccc3nc(NC(=O)NC(=O)c4ccccc4Cl)sc3c2)C1 (stereo not drawn) [Example 163, 2-Chloro-N-[[6-(1-ethylpyrrolidin-3-yl)sulfonylbenzothiazol-2-yl]carbamoyl]benzamide] | 613 nM |  |  |
| CN1CCC(S(=O)(=O)c2ccc3nc(NC(=O)NC(=O)c4ccccc4Cl)sc3c2)C1 (stereo not drawn) [Example 167, 2-Chloro-N-[[6-(1-methylpyrroldin-3-yl)sulfonylbenzothazol-2-yl]carbamoyl]benzamide] | 109 nM |  |  |
| CN1CCC[C@@H]1CS(=O)(=O)c1ccc2nc(NC(=O)NC(=O)c3ccccc3Cl)sc2c1 [Example 169, 2-Chloro-N-[[6-[[(2R)-1-methylpyrrolidin-2-yl]methylsulfonyl]benzothiazol-2-yl]carbamoyl]benzamide] | 151 nM |  |  |
| CC(C)N1CCC(S(=O)(=O)c2ccc3nc(NC(=O)NC(=O)c4ccccc4Cl)sc3c2)CC1 [Example 174, 2-Chloro-N-[[6-[(1-propan-2-yl-4-piperidyl)sulfonyl]benzothiazol-2-yl]carbamoyl]benzamide] | 139 nM |  |  |
| O=C(NC(=O)c1ccccc1Cl)Nc1nc2ccc(S(=O)(=O)C3CCNCC3)cc2s1 [Example 176, 2-Chloro-N-[[6-(4-piperidylsulfonyl)benzothiazol-2-yl]carbamoyl]benzamide] | 13.2 nM |  |  |
| CN1CCC(S(=O)(=O)c2ccc3nc(NC(=O)NC(=O)c4ccccc4Cl)sc3c2)CC1 [Example 184, 2-Chloro-N-[[6-[(1-methyl-4-piperidyl)sulfonyl]benzothiazol-2-yl]carbamoyl]benzamide] | 33.7 nM |  |  |
| CC(C)N1CC(S(=O)(=O)c2ccc3nc(NC(=O)NC(=O)c4ccccc4Cl)sc3c2)C1 [Example 186, 2-Chloro-N-[[6-(1-propan-2-ylazetidin-3-yl)sulfonylbenzothiazol-2-yl]carbamoyl]benzamide] | 34.1 nM |  |  |
| COc1cc(Cl)c(C(=O)NC(=O)Nc2nc3ccc(S(=O)(=O)C4CCNCC4)cc3s2)cc1-n1cccn1 [Example 263, 2-chloro-4-methoxy-N-(6-(piperidin-4-ylsulfonyl)benzo [d]thiazol-2-ylcarbamoyl) 5-(1H-pyrazol-1-yl)benzamide] | 1.12 nM |  |  |
| CN(C)C1CC(Oc2ccc(Cl)c(C(=O)NC(=O)Nc3nc4ccc(S(C)(=O)=O)cc4s3)c2)C1 (stereo not drawn) [Example 269, 2-Chloro-5-(3-dimethylaminocyclobutoxy)-N-[(6-methylsulfonyl-1,3-benzothiazol-2-yl)carbamoyl]benzamide] | 8730 nM |  |  |
| CN(C)CC1CCN(c2ccc(Cl)c(C(=O)NC(=O)Nc3nc4ccc(S(C)(=O)=O)cc4s3)c2)C1 (stereo not drawn) [Example 270, 2-Chloro-5-[3-(dimethylaminomethyl)pyrrolidin-1-yl]-N-[(6-methylsulfonyl-1,3-benzothiazol-2-yl)carbamoyl]benzamide] | 762 nM |  |  |

The remaining compounds from weak to strong by IC50 (human GHS receptor [1]), led by results:

| IC50 (human GHS receptor [1]) | Emax (human GHS receptor [2]) | EC50 (human GHS receptor [2]) | SMILES |
| --- | --- | --- | --- |
| 321 nM | 47.6% | 166 nM | O=C(NC(=O)c1ccccc1Cl)Nc1nc2ccc(S(=O)(=O)CCNCCO)cc2s1 [Example 14, 2-Chloro-N-[[6-[2-(2-hydroxyethylamino)ethylsulfonyl]benzothiazol-2-yl]carbamoyl]benzamide] |
| 104 nM |  |  | O=C(NC(=O)c1ccccc1Cl)Nc1nc2ccc(S(=O)(=O)CCCN3CCC(F)(F)CC3)cc2s1 [Example 158, 2-Chloro-N-[[6-[3-(4,4-difluoro-1-piperidyl)propylsulfonyl]benzothiazol-2-yl]carbamoyl]benzamide] |
| 78.8 nM |  |  | O=C(NC(=O)c1ccccc1Cl)Nc1nc2ccc(S(=O)(=O)CCCN3CCC3)cc2s1 [Example 147, N-[[6-[3-(Azetidin-1-yl)propylsulfonyl]benzothiazol-2-yl]carbamoyl]-2-chloro-benzamide] |
| 78.5 nM |  |  | O=C(NC(=O)c1ccccc1Cl)Nc1nc2ccc(S(=O)(=O)CCCN3CCC(F)C3)cc2s1 (stereo not drawn) [Example 157, 2-Chloro-N-[[6-[3-(3-fluoropyrrolidin-1-yl)propylsulfonyl]benzothiazol-2-yl]carbamoyl]benzamide] |
| 69.6 nM | 39.9% | 36.4 nM | O=C(NC(=O)c1ccccc1Cl)Nc1nc2ccc(S(=O)(=O)CCN3CCNCC3)cc2s1 [Example 8, 2-Chloro-N-[[6-(2-piperazin-1-ylethylsulfonyl)benzothiazol-2-yl]carbamoyl]benzamide] |
| 64 nM |  |  | O=C(NC(=O)c1ccccc1Cl)Nc1nc2ccc(S(=O)(=O)C[C@H]3CCCN3CC3CC3)cc2s1 [Example 156, 2-Chloro-N-[[6-[[(2R)-1-(cyclopropylmethyl)pyrrolidin-2-yl]methylsulfonyl]benzothiazol-2-yl]carbamoyl]benzamide] |
| 13.3 nM | 40.8% | 17.6 nM | COCCNCCS(=O)(=O)c1ccc2nc(NC(=O)NC(=O)c3ccccc3Cl)sc2c1 [Example 2, 2-Chloro-N-[[6-[2-(2-methoxyethylamino)ethylsulfonyl]benzothiazol-2-yl]carbamoyl]benzamide] |
| 1.5 nM |  |  | CC(C)Oc1cc(Cl)c(C(=O)NC(=O)Nc2nc3ccc(S(=O)(=O)C4CCN(C)CC4)cc3s2)cc1-n1cccn1 [Example 267, 2-chloro-4-isopropoxy-N-(6-(1-methylpiperidin-4-ylsulfonyl)benzo [d]thiazol-2-ylcarbamoyl) 5-(1H-pyrazol-1-yl)benzamide] |
